Assay results published in US7932239B2, “Methods of and compositions for reducing neuronal cell death” (Wisconsin Alumni Research Foundation, priority 2005, dated 2011).

Columns and labels:
[1] = test system: retinal ganglion cells (RGCs); assay: Viability of acutely axotomized retinal ganglion cells in culture (DAPI retrograde labeling, calcein-AM staining) at 72 hours; format: cell-based, rat; settings: for rescue of RGCs (in words): at 100 μM
Description: DAPI binds to nuclear DNA and fluoresces under UV light. At postnatal days eleven to thirteen, the animals were sacrificed by decapitation, the eyes enucleated, and the retinas dissected in Hank's balanced salt solution (HBSS). After two incubations in enzyme solution containing papain (3.7 U/ml), each for 30 minutes at 37° C., the retinas were gently triturated with a Pasteur pipette and plated on poly-L-lysine-coated 96-well flat-bottomed tissue culture plates (0.32 cm^2 surface area/well) at a density of approximately 2000 cells/mm^2. The cells were cultured for 72 hours in Neurobasal-A, B27 supplement lacking antioxidants in a humidified 5% CO2 incubator at 37° C.
Retinal Ganglion Cell Identification and Counting: RGCs were identified by the presence of DAPI, which appears blue when viewed with appropriate filters under epifluorescence. Cell viability was determined by metabolism of calcein-AM, which produces a green fluorescence when viewed with fluorescein filters. Cells were incubated in a 1 μM solution of calcein-AM in phosphate-buffered saline (PBS) for 30 minutes, after which the medium was replaced with fresh PBS. Wells were counted in duplicate or in triplicate.
Statistical Analysis: All RGC viability calculations were normalized to the control (no treatment) condition by dividing the mean number of living RGCs in an experimental condition by the mean in controls. Comparisons were by unpaired t-test.

[2] = test system: RGCs; assay: RGC death after optic nerve crush in vivo, intravitreal injection, RGC density in retinal whole mounts; design: species or system rat; settings: 7 to 14 days after optic nerve crush, written in present tense
Description: Optic Nerve Crush Surgery and Intravitreal Injections: Surgeries are conducted on adult (i.e. eight to twelve week old) rats that have previously received 1,1′-dioctadecyl-3,3,3′,3′-tetramethylindocarbocyanine (DiI) injections. All surgeries are done aseptically and are performed on the left eye only. Animals are anesthetized with a mixture of ketamine and xylazine. A limited lateral canthotomy is performed. The conjunctiva is then incised at the limbus and the subtenons space bluntly dissected posteriorly. […] The muscle cone is then entered and the optic nerve exposed. A longitudinal incision is made along the meningeal sheath to expose the optic nerve axons and to avoid disturbing the retinal blood supply. The axons of the optic nerve are then crushed with blunt forceps for 5 seconds 2 mm posterior to the globe under direct visualization. […]
RGC Density Determination: Retinal wholemounts are imaged with an Axiocarn HRc digital camera attached to a Zeiss Axiophot fluorescent microscope. […] The density of RGCs/mm^2 is determined by counting labeled DiI cells in three areas per retinal quadrant at three different eccentricities of the retinal radius for a total of twelve regions per retina. Cells positive for both DiI and BSL-I, as determined by bright yellow labeling when DiI (red) and BSL-I (green) images are merged, are subtracted from the total DiI count. […]

[3] = test system: RGCs; settings: after one to twelve weeks; written in present tense
Description: Unilateral experimental glaucoma is induced in the rat using the Quigley protocol for laser ablation of the trabecular meshwork and of the circumferential episcleral vessels. […] The animals are anesthetized as in Example 2. A diode laser at 532 nm (0.2-0.4 watts and 0.3-0.7 second duration, depending on degree of pigmentation) is used to administer laser treatment at the trabecular meshwork and at the episcleral veins draining the perilimbal vessel plexus of vessel. In case a milder IOP rise is required, animals can be treated only at the trabecular meshwork. The laser treatment is repeated at 1 week if the IOP difference between the treated eye and the untreated eye is less than 6 mm Hg. Following laser treatment, sterile drug (i.e. PB1 or PB2) or control (BSS) is administered.
IOP is measured by putting a drop of 0.5% proparacaine in the eye, gently cradling the rat and touching the anesthetized eye with a Tonopen tonometer tip for a fraction of a second, usually for 3±2 times, more if the standard deviation is high. […] Depending on the experiment, the IOP is initially measured daily and then weekly.
After one to twelve weeks animals are sacrificed and RGC counts are performed as described in Example 2.

[4] = test system: retinal ganglion cells (RGCs); settings: previous studies, cited from earlier work
[5] = test system: RGCs; settings: injected intravitreally into adult rats, previous studies; cited from earlier work
[6] = at 1 μM and 100 μM, 72 hours, p<0.05

For `O=C(O)c1ccccc1P(c1ccccc1)c1ccccc1` [2DPBA, 2-(diphenylphosphino)benzoic acid], the “relative RGC survival (compared to control)” value (“relative RGC survival” for short) ([1]; 10 nM, 72 hours) was 216±18%, the “neuroprotection of RGCs (in words)” value [1, 6] was “significant protection” and the “concentration at which neuroprotective for RGCs (lowest)” value (“concentration at which neuroprotective” below) ([1]; dose response, 72 hours) was 10 nM.
With `O=S(=O)([O-])c1cccc(P(c2cccc(S(=O)(=O)[O-])c2)c2cccc(S(=O)(=O)[O-])c2)c1.[Na+].[Na+].[Na+]` [3BSA, 3,3′,3″-phosphinidynetris(benzene-sulfonic acid) trisodium salt] the “relative RGC survival” value ([1]; 100 μM, 72 hours) was 206±6% and the “rescue of RGCs (in words)” value ([1]; 72 hours) was “rescue RGCs”.
With `[BH3-][P+](CCC(=O)OC)(CCC(=O)OC)c1ccccc1` [PB1, bis(3-propionic acid methyl ester)phenylphosphine borane complex] the “RGC density compared to controls (in words)” value [2] was “greater RGC density”, the “relative RGC survival” value ([1]; 1 nM, 72 hours after axotomy) was 174±12% and the “neuroprotection of RGCs (in words)” value ([1]; at picomolar concentrations, 72 hours) was “highly effective”. The “concentration at which neuroprotective” value ([1]; dose response, 72 hours) was no less than 1 nM and the “RGC cell death compared to controls (in words)” value [3] was “attenuated”.
With `[BH3-][P+](CCC(=O)OC)(c1ccccc1)c1ccccc1` [PB2, (3-propionic acid methyl ester)diphenylphosphine borane complex] the “RGC density compared to controls (in words)” value [2] was “greater RGC density”, the “relative RGC survival” value ([1]; 10 pM, 72 hours after axotomy) was 180±10% and the “concentration at which neuroprotective” value ([1]; dose response 1 pM to 100 μM, 72 hours) was no less than 0.01 nM. For the same molecule, the “RGC cell death compared to controls (in words)” value [3] was “attenuated”.
For `O[C@H](CS)[C@H](O)CS` (racemic) [DTT, dithiothreitol], the “effectiveness at nanomolar concentrations (in words)” value [4] is given as “not effective”.
For `O=C(O)CCP(CCC(=O)O)CCC(=O)O` [TCEP, tris-(2-carboxyethyl) phosphine], the “effectiveness at nanomolar concentrations (in words)” value [4] is given as “not effective”, the “concentration required for RGC neuroprotection” value [4] is given as roughly 100 µM and the “rescue of RGCs (in words)” value ([1]; 72 hours) is given as “mildly rescued RGCs”. The “RGC death after optic nerve crush (in words)” value [5] was “inhibited RGC death”.
For `O=C(O)c1ccc(P(c2ccccc2)c2ccccc2)cc1` [4DPBA, 4-(diphenylphosphino)benzoic acid], the “relative RGC survival” value ([1]; 1 μM, 72 hours) was 183±19% and the “neuroprotection of RGCs (in words)” value [1, 6] was “neuroprotection”.
